Like-named read-outs stand apart in the source and are kept apart here.

From PMC9851200, “Multiparameter phenotypic screening for endogenous TFEB and TFE3 translocation identifies novel chemical series modulating lysosome function” (Autophagy, 2022) come the findings set out here.

Holding throughout (conditions): PKIS2 primary screening
Data set [1] deals with SH-SY5Y cells. In words: Nuclear count from microscopy images (cellular growth and toxicity). Note: reference of the scale not given here.
The test system of data set [2] is SH-SY5Y cells. In words: AK (adenylate kinase) release ToxiLight cytotoxicity assay. Note: reference of the scale not given here.
Another data set relates to endogenous TFEB. Kind of data set: TFEB nuclear translocation, immunocytochemistry high-content imaging. Format: cell-based.
The subject of a further data set is endogenous TFE3. In words: TFE3 nuclear translocation, immunocytochemistry high-content imaging. The class given is cell-based.
Data set [3] has as its system SH-SY5Y cells.
Excerpt: The PKIS2 Library was supplied by The Structural Genomics Consortium at the University of North Carolina at Chapel Hill.
Throughout, for DQ Intensity: reference of the scale not given here.
Throughout, for DQ Spot: reference of the scale not given here.

Turning to `Cc1ccc(NC(=O)c2ccnc(N3CCCCC3)c2)cc1-c1ccc(C(=O)NCC2CC2)cc1` [UNC10225036A], in the data set on SH-SY5Y cells [1], the “Nuclear Count” value amounted to 108.51. For the same compound, in the data set with SH-SY5Y cells [2], the AK is 94.08. In addition, the TFEB % in the data set with endogenous TFEB came to 5.85%. Also, the TFE3 % in the data set with endogenous TFE3 is given as 6.82%. In the data set with SH-SY5Y cells [3], the “DQ Intensity” value is 84.91 and the “DQ Spot” value is on record as 99.52.

`C[C@@H]1CC[C@@H](C(=O)Nc2ccccc2)CN1c1cc(-c2ccc3c(N)n[nH]c3c2)nc(N)n1` [GSK2286062]: the “Nuclear Count” value in the data set with SH-SY5Y cells [1] is 138.15. In the data set with SH-SY5Y cells [2], this compound returned an AK of 87.26. Further, the TFEB % in the data set with endogenous TFEB is recorded as 4.27%. In the data set on endogenous TFE3, the TFE3 % was found to be 8.18%. In the data set on SH-SY5Y cells [3] (DQ Red BSA intensity), the “DQ Intensity” value is on record as 74.11. The “DQ Spot” value in the data set with SH-SY5Y cells [3] (DQ Red BSA spot count) was 77.23.

Take `COc1ccc(CNC(=O)NC2CCN(c3ccnc(Nc4cc(OC)c(OC)c(OC)c4)n3)C2)cc1` (stereo not drawn) [GSK1379748]: in the data set on SH-SY5Y cells [1], the “Nuclear Count” value is 99.04. For the same compound, the AK in the data set on SH-SY5Y cells [2] came to 124.35. This compound registered a TFEB % in the data set on endogenous TFEB of 3.68%. In the data set with endogenous TFE3, this compound showed a TFE3 % of 7.30%. Moreover, the “DQ Intensity” value with SH-SY5Y cells [3] (DQ Red BSA intensity) is on record as 92.45. Besides, the “DQ Spot” value in the data set on SH-SY5Y cells [3] (DQ Red BSA spot count) was found to be 91.07.

`C[C@@H]1CCCCN1c1cc(-c2ccc3c(N)n[nH]c3c2)nc(N)n1` [GSK2258759]: the “Nuclear Count” value in the data set with SH-SY5Y cells [1] is 88.84. The compound further yielded an AK in the data set on SH-SY5Y cells [2] of 88.63. For the same compound, the TFEB % with endogenous TFEB amounted to 3.40%. This compound returned a TFE3 % with endogenous TFE3 of 12.52%. The “DQ Intensity” value with SH-SY5Y cells [3] (DQ Red BSA intensity) was determined as 61.15. The “DQ Spot” value in the data set with SH-SY5Y cells [3] (DQ Red BSA spot count) is listed as 84.49.

Turning to `Nc1nc(-c2ccc3c(N)n[nH]c3c2)cc(N2CCC[C@@H](C(=O)Nc3ccccc3)C2)n1` [GSK2288359], in the data set on SH-SY5Y cells [1], the “Nuclear Count” value is reported as 88.88. In the data set with SH-SY5Y cells [2], this compound registered an AK of 96.03. In the data set on endogenous TFEB, the TFEB % is on record as 6.39%. The TFE3 % in the data set on endogenous TFE3 came to 14.08%. Moreover, the “DQ Intensity” value with SH-SY5Y cells [3] (DQ Red BSA intensity) is 83.69. In addition, the “DQ Spot” value in the data set with SH-SY5Y cells [3] (DQ Red BSA spot count) is on record as 103.68.

`COc1cc2c(Nc3cccc(NC(=O)c4ccccc4)c3)ncnc2cc1OCCCN1CCOCC1` [UNC10225271A]: in the data set with SH-SY5Y cells [1], the “Nuclear Count” value is given as 122.91. In the data set on SH-SY5Y cells [2], this compound had an AK of 98.71. Further, in the data set on endogenous TFEB, the TFEB % was determined as 3.87%. Besides, the TFE3 % in the data set with endogenous TFE3 came out at 10.54%. For the same compound, the “DQ Intensity” value in the data set on SH-SY5Y cells [3] (DQ Red BSA intensity) stood at 90.70. Also, in the data set on SH-SY5Y cells [3] (DQ Red BSA spot count), the “DQ Spot” value worked out at 104.52.

As to `C[C@H]1CC[C@@H](C(=O)Nc2ccccc2)CN1c1cc(-c2ccc3c(N)n[nH]c3c2)nc(N)n1` [GSK2283293], the “Nuclear Count” value in the data set with SH-SY5Y cells [1] stood at 95.91. Besides, the AK with SH-SY5Y cells [2] is given as 101.77. The compound also had a TFEB % with endogenous TFEB of 5.47%. This compound also displayed a TFE3 % in the data set on endogenous TFE3 of 11.00%. In addition, the “DQ Intensity” value in the data set with SH-SY5Y cells [3] (DQ Red BSA intensity) was 68.06. In the data set on SH-SY5Y cells [3] (DQ Red BSA spot count), the “DQ Spot” value is on record as 92.27.

As to `COc1ccc(C)c(Nc2ccnc(Nc3ccc(-c4cnc[nH]4)cc3)n2)c1` [GW784041], the “Nuclear Count” value in the data set with SH-SY5Y cells [1] is 105.20. The same compound returned an AK in the data set on SH-SY5Y cells [2] of 81.91. For the same compound, in the data set with endogenous TFEB, the TFEB % was determined as 16.17%. In the data set with endogenous TFE3, this compound registered a TFE3 % of 11.03%. In addition, the “DQ Intensity” value in the data set with SH-SY5Y cells [3] (DQ Red BSA intensity) is 109.83. The “DQ Spot” value in the data set on SH-SY5Y cells [3] (DQ Red BSA spot count) came to 101.33.

As for `Cl.O=C(Nc1cccc(-c2nn3ncccc3c2-c2ccnc(Nc3cccnc3)n2)c1)c1c(F)cccc1F` [UNC10225440A], the “Nuclear Count” value in the data set with SH-SY5Y cells [1] is given as 119.73. The compound also registered an AK in the data set with SH-SY5Y cells [2] of 101.41. The TFEB % in the data set on endogenous TFEB came to 7.43%. In the data set with endogenous TFE3, this compound had a TFE3 % of 9.74%. Besides, in the data set with SH-SY5Y cells [3], the “DQ Intensity” value is recorded as 138.59 and the “DQ Spot” value is 122.41.

Consider `COc1cc2ncn(-c3cc(OCC4CCCO4)c(C(N)=O)s3)c2cc1OC` (stereo not drawn) [UNC10225372A], for which the “Nuclear Count” value in the data set on SH-SY5Y cells [1] is 102.24. Also, the AK in the data set on SH-SY5Y cells [2] came to 162.91. Also, in the data set on endogenous TFEB, the TFEB % was determined as 6.13%. In the data set on endogenous TFE3, the TFE3 % turned out to be 10.50%. Moreover, in the data set with SH-SY5Y cells [3], the “DQ Intensity” value is recorded as 86.61 and the “DQ Spot” value worked out at 87.29.

Regarding `CC(C)(C)OC(=O)NC1CCCN(c2cc(-c3ccc4c(N)n[nH]c4c3)nc(N)n2)C1` (stereo not drawn) [GSK2286096], the “Nuclear Count” value in the data set on SH-SY5Y cells [1] amounted to 128.62. This compound also yielded an AK in the data set with SH-SY5Y cells [2] of 116.95. The compound also yielded a TFEB % with endogenous TFEB of 2.89%. The compound further gave a TFE3 % with endogenous TFE3 of 7.82%. Besides, in the data set with SH-SY5Y cells [3] (DQ Red BSA intensity), the “DQ Intensity” value is 137.35. In addition, in the data set on SH-SY5Y cells [3] (DQ Red BSA spot count), the “DQ Spot” value was 108.17.

On to `Cc1ccc(NC(=O)c2cccc(C#N)c2)cc1-c1ccc(C(=O)Nc2ccncc2)cc1` [UNC10225263A], for which the “Nuclear Count” value in the data set on SH-SY5Y cells [1] amounted to 75.93. In the data set with SH-SY5Y cells [2], this compound had an AK of 76.98. In the data set with endogenous TFEB, this compound had a TFEB % of 13.51%. For the same compound, the TFE3 % in the data set with endogenous TFE3 was determined as 18.65%. For the same compound, in the data set with SH-SY5Y cells [3], the “DQ Intensity” value came to 106.14 and the “DQ Spot” value was 106.02.

`Cc1cc(N2Cc3ccccc3C2)nc(Nc2ccc(S(=O)(=O)N3CCOCC3)cc2)n1` [GSK1669917]: the “Nuclear Count” value in the data set on SH-SY5Y cells [1] is reported as 138.98. In the data set with SH-SY5Y cells [2], this compound displayed an AK of 117.66. Further, the TFEB % in the data set on endogenous TFEB is 1.55%. For the same compound, in the data set with endogenous TFE3, the TFE3 % is reported as 8.23%. Moreover, the “DQ Intensity” value with SH-SY5Y cells [3] (DQ Red BSA intensity) is listed as 64.14. Further, the “DQ Spot” value with SH-SY5Y cells [3] (DQ Red BSA spot count) was 76.32.

As to `CN(c1ccc(NC(=O)Nc2cc(C(F)(F)F)ccc2F)cc1)c1ccnc(Nc2ccc(S(N)(=O)=O)cc2)n1` [GW809893], the “Nuclear Count” value in the data set with SH-SY5Y cells [1] is 46.13. Also, the AK in the data set on SH-SY5Y cells [2] came to 111.00. Also, the TFEB % with endogenous TFEB came to 22.40%. Also, the TFE3 % with endogenous TFE3 was 18.55%. Besides, in the data set on SH-SY5Y cells [3] (DQ Red BSA intensity), the “DQ Intensity” value came out at 76.59. The “DQ Spot” value in the data set on SH-SY5Y cells [3] (DQ Red BSA spot count) came to 83.26.
